Measured values taken from the supplement of paper PMC8558673.

Tested on: Escherichia coli K12 ER1821
Assay: log10 surviving fraction N/N0 (CFU/mL relative to untreated control) (log_unit); higher = more bacterial survival (less inactivation)
Description: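 E. coli K12 ER1821 (mid-exponential, washed in 250 mM sucrose) was exposed to antibiotic at MIC, 3x, 10x or 30x MIC, given a single 1-ms pulse of 0-20 kV/cm, and incubated with the antibiotic at room temperature for <=1 min, 60 min, 160 min or 24 h before dilution. Survivors were counted as CFU by drop plating after overnight growth at 37 C; the value is log10(N/N0) relative to the untreated control (no antibiotic, no pulse), with 3 replicates on different days.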

CC1(C)S[C@@H]2[C@H](NC(=O)[C@H](N)c3ccccc3)C(=O)N2[C@H]1C(=O)O [ampicillin]
log10 surviving fraction N/N0
Conditions | antibiotic concentration 30 ug/mL | antibiotic concentration 90 ug/mL | antibiotic concentration 300 ug/mL | antibiotic concentration 900 ug/mL
electric pulse amplitude (kV/cm, single 1-ms pulse): 0, post-pulse incubation time: 24 h | -0.726 | -1.73 | -2.56 | -2.68
electric pulse amplitude (kV/cm, single 1-ms pulse): 0, post-pulse incubation time: 60 min | -0.0801 | -0.135 | -1.02 | -1.65
electric pulse amplitude (kV/cm, single 1-ms pulse): 0, post-pulse incubation time: 160 min | -0.551 | -1.08 | -1.68 | -2.17
electric pulse amplitude (kV/cm, single 1-ms pulse): 0, post-pulse incubation time: <=1 min | -0.0839 | -0.253 | -0.17 | -0.995
electric pulse amplitude (kV/cm, single 1-ms pulse): 5, post-pulse incubation time: 24 h | -1.01 | -1.77 | -2.86 | -3.4
electric pulse amplitude (kV/cm, single 1-ms pulse): 5, post-pulse incubation time: 60 min | -0.411 | -0.494 | -1.56 | -2.27
electric pulse amplitude (kV/cm, single 1-ms pulse): 5, post-pulse incubation time: 160 min | -0.803 | -1.47 | -2.27 | -2.86
electric pulse amplitude (kV/cm, single 1-ms pulse): 5, post-pulse incubation time: <=1 min | -0.112 | -0.305 | -0.412 | -1.08
electric pulse amplitude (kV/cm, single 1-ms pulse): 10, post-pulse incubation time: 24 h | -1.62 | -2.91 | -4.063 | -4.5
electric pulse amplitude (kV/cm, single 1-ms pulse): 10, post-pulse incubation time: 60 min | -1.07 | -1.59 | -2.43 | -2.817
electric pulse amplitude (kV/cm, single 1-ms pulse): 10, post-pulse incubation time: 160 min | -1.64 | -2.22 | -2.96 | -3.31
electric pulse amplitude (kV/cm, single 1-ms pulse): 10, post-pulse incubation time: <=1 min | -0.474 | -0.722 | -1.11 | -1.27
electric pulse amplitude (kV/cm, single 1-ms pulse): 15, post-pulse incubation time: 24 h | -2.66 | -3.79 | -4.45 | -4.93
electric pulse amplitude (kV/cm, single 1-ms pulse): 15, post-pulse incubation time: 60 min | -1.88 | -2.12 | -2.9 | -3.28
electric pulse amplitude (kV/cm, single 1-ms pulse): 15, post-pulse incubation time: 160 min | -2.2 | -2.74 | -3.3 | -3.8
electric pulse amplitude (kV/cm, single 1-ms pulse): 15, post-pulse incubation time: <=1 min | -1.1 | -1.29 | -1.34 | -1.99
electric pulse amplitude (kV/cm, single 1-ms pulse): 20, post-pulse incubation time: 24 h | -3.57 | -4.39 | -4.6 | -4.96
electric pulse amplitude (kV/cm, single 1-ms pulse): 20, post-pulse incubation time: 60 min | -2.46 | -2.71 | -3.42 | -3.64
electric pulse amplitude (kV/cm, single 1-ms pulse): 20, post-pulse incubation time: 160 min | -2.65 | -3.23 | -3.77 | -4.02
electric pulse amplitude (kV/cm, single 1-ms pulse): 20, post-pulse incubation time: <=1 min | -1.34 | -1.45 | -1.85 | -2.58

O=C(O)c1cn(C2CC2)c2cc(N3CCNCC3)c(F)cc2c1=O [ciprofloxacin]
log10 surviving fraction N/N0
Conditions | antibiotic concentration 0.025 ug/mL | antibiotic concentration 0.075 ug/mL | antibiotic concentration 0.25 ug/mL | antibiotic concentration 0.75 ug/mL
electric pulse amplitude (kV/cm, single 1-ms pulse): 0, post-pulse incubation time: 24 h | -1.23 | -2.32 | -3.37 | -2.76
electric pulse amplitude (kV/cm, single 1-ms pulse): 0, post-pulse incubation time: 60 min | -0.187 | -0.389 | -1.04 | -1.39
electric pulse amplitude (kV/cm, single 1-ms pulse): 0, post-pulse incubation time: 160 min | -0.358 | -0.825 | -1.78 | -2.04
electric pulse amplitude (kV/cm, single 1-ms pulse): 0, post-pulse incubation time: <=1 min | -0.0971 | -0.218 | -0.361 | -0.897
electric pulse amplitude (kV/cm, single 1-ms pulse): 5, post-pulse incubation time: 24 h | -1.2 | -2.36 | -3.46 | -2.88
electric pulse amplitude (kV/cm, single 1-ms pulse): 5, post-pulse incubation time: 60 min | -0.336 | -0.615 | -1.11 | -1.47
electric pulse amplitude (kV/cm, single 1-ms pulse): 5, post-pulse incubation time: 160 min | -0.532 | -0.993 | -1.87 | -2.11
electric pulse amplitude (kV/cm, single 1-ms pulse): 5, post-pulse incubation time: <=1 min | -0.217 | -0.161 | -0.535 | -1.04
electric pulse amplitude (kV/cm, single 1-ms pulse): 10, post-pulse incubation time: 24 h | -1.78 | -2.97 | -3.49 | -3.36
electric pulse amplitude (kV/cm, single 1-ms pulse): 10, post-pulse incubation time: 60 min | -0.593 | -1.29 | -1.69 | -2.16
electric pulse amplitude (kV/cm, single 1-ms pulse): 10, post-pulse incubation time: 160 min | -1.04 | -1.73 | -2.52 | -2.86
electric pulse amplitude (kV/cm, single 1-ms pulse): 10, post-pulse incubation time: <=1 min | -0.507 | -0.67 | -0.989 | -1.83
electric pulse amplitude (kV/cm, single 1-ms pulse): 15, post-pulse incubation time: 24 h | -2.35 | -3.37 | -3.85 | -4.09
electric pulse amplitude (kV/cm, single 1-ms pulse): 15, post-pulse incubation time: 60 min | -1.41 | -1.81 | -2.34 | -2.77
electric pulse amplitude (kV/cm, single 1-ms pulse): 15, post-pulse incubation time: 160 min | -1.62 | -2.31 | -3.12 | -3.27
electric pulse amplitude (kV/cm, single 1-ms pulse): 15, post-pulse incubation time: <=1 min | -1.25 | -1.2 | -1.55 | -2.28
electric pulse amplitude (kV/cm, single 1-ms pulse): 20, post-pulse incubation time: 24 h | -3.05 | -3.76 | -4.37 | -4.6
electric pulse amplitude (kV/cm, single 1-ms pulse): 20, post-pulse incubation time: 60 min | -1.77 | -2.25 | -2.75 | -3.05
electric pulse amplitude (kV/cm, single 1-ms pulse): 20, post-pulse incubation time: 160 min | -1.92 | -2.73 | -3.31 | -3.37
electric pulse amplitude (kV/cm, single 1-ms pulse): 20, post-pulse incubation time: <=1 min | -1.65 | -1.77 | -2.05 | -2.91

CN(C)[C@@H]1C(O)=C(C(N)=O)C(=O)[C@@]2(O)C(O)=C3C(=O)c4c(O)cccc4[C@@](C)(O)[C@H]3C[C@@H]12 [tetracycline]
log10 surviving fraction N/N0
Conditions | antibiotic concentration 2 ug/mL | antibiotic concentration 6 ug/mL | antibiotic concentration 20 ug/mL | antibiotic concentration 60 ug/mL
electric pulse amplitude (kV/cm, single 1-ms pulse): 0, post-pulse incubation time: 24 h | -0.417 | -0.475 | -0.573 | -1.45
electric pulse amplitude (kV/cm, single 1-ms pulse): 0, post-pulse incubation time: 60 min | -0.108 | -0.125 | -0.116 | -0.361
electric pulse amplitude (kV/cm, single 1-ms pulse): 0, post-pulse incubation time: 160 min | -0.0521 | -0.172 | -0.241 | -0.461
electric pulse amplitude (kV/cm, single 1-ms pulse): 0, post-pulse incubation time: <=1 min | -0.0586 | -0.2 | -0.136 | -0.26
electric pulse amplitude (kV/cm, single 1-ms pulse): 5, post-pulse incubation time: 24 h | -0.436 | -0.518 | -0.877 | -2.42
electric pulse amplitude (kV/cm, single 1-ms pulse): 5, post-pulse incubation time: 60 min | -0.307 | -0.307 | -0.303 | -0.636
electric pulse amplitude (kV/cm, single 1-ms pulse): 5, post-pulse incubation time: 160 min | -0.235 | -0.282 | -0.345 | -0.84
electric pulse amplitude (kV/cm, single 1-ms pulse): 5, post-pulse incubation time: <=1 min | -0.0914 | -0.264 | -0.276 | -0.618
electric pulse amplitude (kV/cm, single 1-ms pulse): 10, post-pulse incubation time: 24 h | -0.65 | -0.762 | -1.8 | -3.46
electric pulse amplitude (kV/cm, single 1-ms pulse): 10, post-pulse incubation time: 60 min | -0.769 | -0.825 | -1.02 | -1.72
electric pulse amplitude (kV/cm, single 1-ms pulse): 10, post-pulse incubation time: 160 min | -0.827 | -0.925 | -1.11 | -2.1
electric pulse amplitude (kV/cm, single 1-ms pulse): 10, post-pulse incubation time: <=1 min | -0.389 | -0.48 | -0.656 | -1.39
electric pulse amplitude (kV/cm, single 1-ms pulse): 15, post-pulse incubation time: 24 h | -1 | -1.48 | -2.97 | -4.05
electric pulse amplitude (kV/cm, single 1-ms pulse): 15, post-pulse incubation time: 60 min | -1.45 | -1.53 | -1.82 | -2.48
electric pulse amplitude (kV/cm, single 1-ms pulse): 15, post-pulse incubation time: 160 min | -1.46 | -1.63 | -1.99 | -2.74
electric pulse amplitude (kV/cm, single 1-ms pulse): 15, post-pulse incubation time: <=1 min | -0.764 | -0.971 | -1.23 | -2.06
electric pulse amplitude (kV/cm, single 1-ms pulse): 20, post-pulse incubation time: 24 h | -1.49 | -1.98 | -3.9 | -4.78
electric pulse amplitude (kV/cm, single 1-ms pulse): 20, post-pulse incubation time: 60 min | -1.99 | -2.02 | -2.25 | -3.13
electric pulse amplitude (kV/cm, single 1-ms pulse): 20, post-pulse incubation time: 160 min | -1.97 | -2.19 | -2.44 | -3.57
electric pulse amplitude (kV/cm, single 1-ms pulse): 20, post-pulse incubation time: <=1 min | -1.26 | -1.3 | -1.57 | -2.34
